US9440963B2, “Compositions, formulations and methods for treating ocular diseases” (Aerpio Therapeutics Inc., priority 2013, dated 2016)
In brackets after ≈: the same amount, converted by molar mass. Like-named read-outs stand apart in the source and are kept apart here.

Tests used:
[1] = Room temperature aqueous solubility with solubilizing agents (Example 36); type: physicochemical
From the text: The room temperature aqueous solubility (mg/mL) of the a compound (4-{(S)-2-[(S)-2-methoxycarbonylamino)-3-phenylpropanamido]-2-[2-(thiophen-2-yl)thiazol-4-yl]ethyl}phenylsulfamic acid) in water, HPβCD, Poloxamer 407, and sulfobutylether-β-cyclodextrin, is provided in TABLE XXVII. Solubility in saline for the test compound is reduced presumably due to the common ion effect.
The solubility (mg/mL) of the test compound in mixtures of HPβCD and PEG400 is illustrated in TABLE XXVIII.

[2] = Chemical and physical stability of aqueous solution formulations (Table XXIX); type: physicochemical; settings: for Concentration of test compound in aqueous solution formulation shown to be chemically and physically stable: chemically stable 1 month at 50 °C, physically stable at 5 °C, ambient, 50 °C
Method: TABLE XXIX contains aqueous solution formulations of the test compound above with the denoted solvents that have been prepared and shown to be chemically stable through 1 month at 50° C., and physically stable at 5° C., at ambient temperature, and at 50° C. […] The target pH range for the formulations is pH 7+/−0.5 pH units.

[3] = human, in vivo
Method: FIG. 9 depicts the mean plasma concentration over time after a single dose of a 5 mg, a 15 mg, a 22.5 mg, or a 30 mg of a test compound on day 14, respectively, in a multiple ascending dose study in patients with diabetic macular edema.
A phase 1B/2A open-label, Multiple-ascending dose cohort study to assess the pharmacokinetics and pharmacodynamics effect of 28-day repeat subcutaneous dose of 4-{(S)-2-[(S)-2-(methoxycarbonylamino)-3-phenylpropanamido]-2-[2-(thiophen-2-yl)thiazol-4-yl]ethyl}phenylsulfamic acid (drug) in subjects with diffuse diabetic macular edema (DME).
The aim of this study was to evaluate tolerability, safety, efficacy and pharmacokinetics and pharmacodynamics in patients with DME involving the center of the fovea with central subfield mean thickness ≧325 μm measured by spectral domain-optical coherence tomography (SD-OCT).
Twenty-four patients were administered ascending doses of test compound twice daily (BID) for 28 days in 4 separate cohorts at 5, 15, 22.5 or 30 mg BID, respectively.
Drug was supplied as a lyophilized powder in a vial for reconstitution. Each vial contained 100 mg drug and 250 mg HPβCD. Vials were reconstituted with sterile 5% dextrose for cohort 1 (5 mg BID) and with sterile diluent containing 5% HPβCD/1% dextrose for cohorts 2, 3, and 4 (15 mg, 22.5 mg and 30 mg BID).
For cohorts 1 (5 mg BID) and 2 (15 mg BID) the volume administered for each dose was 0.5 ml (10 and 30 mg/ml, respectively) and for cohorts 3 and 4 the volume was 0.75 ml (30 and 40 mg/ml, respectively).
Blood samples for pharmacokinetic profiling were taken pre-dose (0), 15 minutes, 1 hour, 2 hours, 3 hours and 4 hours after administration of the first dose on day 14.
Plasma drug concentration was determined with a validated LC/MS-MS method. The pharmacokinetic (PK) parameters were determined using a standard non-compartmental method, and Cmax, AUClast (with last being from time 0 to the last quantifiable point), AUCinf, were analyzed statistically using log-transformed data.

For CCc1csc([C@H](Cc2ccc(NS(=O)(=O)O)cc2)NC(=O)[C@H](Cc2ccccc2)NC(=O)OC)n1, the Solubility [1] was 89 mg/mL (≈ 167 mM), the Solubility ([1]; aqueous with cosolvent or surfactant or cyclodextrin, Solubility) was 60 mg/mL (≈ 113 mM) and the Solubility ([1]; water, Solubility) was 45 mg/mL (≈ 84.5 mM).
For COC(=O)N[C@@H](Cc1ccccc1)C(=O)N[C@@H](Cc1ccc(NS(=O)(=O)O)cc1)c1csc(-c2cccs2)n1 [test compound], the “solubility with either HPβCD or PEG400 individually” value [1] was “increase in solubility”, the Solubility ([1]; 0% HPβCD, 15% PEG400) was 30 mg/mL (≈ 51.1 mM) and the Solubility ([1]; 0% HPβCD, 30% PEG400) was 68 mg/mL (≈ 116 mM). For the same compound, the Solubility ([1]; 15% HPβCD, 0% PEG400) was 59 mg/mL (≈ 101 mM), the Solubility ([1]; 15% HPβCD, 5% PEG400) was 57 mg/mL (≈ 97.2 mM) and the Solubility ([1]; 15% HPβCD, 10% PEG400) was 34 mg/mL (≈ 57.9 mM). The Solubility ([1]; 15% HPβCD, 15% PEG400) was 6 mg/mL (≈ 10.2 mM), the Solubility ([1]; room temperature, aqueous, 0% HPβCD (water)) was 27 mg/mL (≈ 46 mM) and the Solubility ([1]; room temperature, aqueous, 10% HPβCD) was 45 mg/mL (≈ 76.7 mM). For the same compound, the Solubility ([1]; room temperature, aqueous, 15% SBE-β-CD) was 44 mg/mL (≈ 75 mM), the Solubility ([1]; room temperature, aqueous, 20% HPβCD) was 57 mg/mL (≈ 97.2 mM) and the Solubility ([1]; room temperature, aqueous, 20% Poloxamer 407) was 44 mg/mL (≈ 75 mM). For the same compound, the Solubility ([1]; room temperature, aqueous, 30% HPβCD) was 72 mg/mL (≈ 123 mM), the “solubility on addition of PEG400 to a mixture with HPβCD” value ([1]; solubility inversely proportional to the amount of PEG400) was “erosion of solubility” and the “Physical and chemical stability of formulation” value ([2]; 4.5% mannitol, 5 mg/mL test compound, one week at room temperature and one week at 50 °C) was “^bPhysically and chemically stable through one week at room temperature and one week at 50 °C”. The “Concentration of test compound in aqueous solution formulation shown to be stable” value ([2]; 4.5% mannitol, one week at room temperature and one week at 50 °C) was 5 mg/mL^b, the “Concentration of test compound in aqueous solution formulation shown to be chemically and physically stable” value ([2]; 10% HPβCD) was 15000 µg/mL and the “Concentration of test compound in aqueous solution formulation evaluated for stability” value ([2]; 15% HPβCD/0.25% saline, evaluated for short-term physical stability at 5 °C and ambient temperature) was 40 mg/mL^a. For the same compound, the “Concentration of test compound in aqueous solution formulation shown to be chemically and physically stable” value ([2]; 25% HPβCD) was 50000 µg/mL, the “Concentration of test compound in aqueous solution formulation shown to be chemically and physically stable” value ([2]; 30% HPβCD) was 50000 µg/mL and the “overall exposures versus dose” value [3] was “approximately dose proportional”. For the same compound, the “AUCinf Geometric Mean” value ([3]; 5 mg) was 102.92 ng·h/mL, the “AUCinf Mean” value ([3]; 5 mg) was 106.46 ng·h/mL and the “AUCinf Median” value ([3]; 5 mg) was 100.55 ng·h/mL. The “AUCinf Min-Max” value ([3]; 5 mg) was 70.1 to 155.1 ng·h/mL, the “AUClast Geometric Mean” value ([3]; 5 mg) was 98.63 ng·h/mL and the “AUClast Mean” value ([3]; 5 mg) was 101.56 ng·h/mL. For the same compound, the “AUClast Median” value ([3]; 5 mg) was 97.03 ng·h/mL, the “AUClast Min-Max” value ([3]; 5 mg) was 67.9 to 142.6 ng·h/mL and the “Cmax Geometric Mean” value ([3]; 5 mg) was 0.07448 µg/mL. The “Cmax Mean” value ([3]; 5 mg) was 0.07775 µg/mL, the “Cmax Median” value ([3]; 5 mg) was 0.07344 µg/mL and the “Cmax Min-Max” value ([3]; 5 mg) was 0.0447 to 0.1081 µg/mL. The “t1/2 Mean (SD)” value ([3]; 5 mg) was 0.85 (0.186) hr, the “t1/2 Median” value ([3]; 5 mg) was 49.8 min and the “t1/2 Min-Max” value ([3]; 5 mg) was 36 to 66 min. For the same compound, the “tmax Mean (SD)” value ([3]; 5 mg) was 0.31 (0.134) hr, the “tmax Median” value ([3]; 5 mg) was 15.6 min and the “tmax Min-Max” value ([3]; 5 mg) was 18 to 36 min. For the same compound, the “AUCinf Geometric Mean” value ([3]; 15 mg) was 245.89 ng·h/mL, the “AUCinf Mean” value ([3]; 15 mg) was 255.08 ng·h/mL and the “AUCinf Median” value ([3]; 15 mg) was 232.89 ng·h/mL. The “AUCinf Min-Max” value ([3]; 15 mg) was 176.8 to 387.4 ng·h/mL, the “AUClast Geometric Mean” value ([3]; 15 mg) was 230.97 ng·h/mL and the “AUClast Mean” value ([3]; 15 mg) was 239.08 ng·h/mL. The “AUClast Median” value ([3]; 15 mg) was 213.32 ng·h/mL, the “AUClast Min-Max” value ([3]; 15 mg) was 170.4 to 353.3 ng·h/mL and the “Cmax Geometric Mean” value ([3]; 15 mg) was 0.14986 µg/mL. For the same compound, the “Cmax Mean” value ([3]; 15 mg) was 0.15657 µg/mL, the “Cmax Median” value ([3]; 15 mg) was 0.13805 µg/mL and the “Cmax Min-Max” value ([3]; 15 mg) was 0.1025 to 0.2263 µg/mL. For the same compound, the “t1/2 Mean (SD)” value ([3]; 15 mg) was 0.96 (0.282) hr, the “t1/2 Median” value ([3]; 15 mg) was 53.4 min and the “t1/2 Min-Max” value ([3]; 15 mg) was 36 to 84 min. The “tmax Mean (SD)” value ([3]; 15 mg) was 0.27 (0.039) hr, the “tmax Median” value ([3]; 15 mg) was 15 min and the “tmax Min-Max” value ([3]; 15 mg) was 12 to 18 min. The “AUCinf Geometric Mean” value ([3]; 22.5 mg) was 454.63 ng·h/mL, the “AUCinf Mean” value ([3]; 22.5 mg) was 498.12 ng·h/mL and the “AUCinf Median” value ([3]; 22.5 mg) was 358.19 ng·h/mL. For the same compound, the “AUCinf Min-Max” value ([3]; 22.5 mg) was 322.4 to 813.8 ng·h/mL, the “AUClast Geometric Mean” value ([3]; 22.5 mg) was 400.80 ng·h/mL and the “AUClast Mean” value ([3]; 22.5 mg) was 437.51 ng·h/mL. The “AUClast Median” value ([3]; 22.5 mg) was 328.84 ng·h/mL, the “AUClast Min-Max” value ([3]; 22.5 mg) was 302.7 to 789.6 ng·h/mL and the “Cmax Geometric Mean” value ([3]; 22.5 mg) was 0.21572 µg/mL. The “Cmax Mean” value ([3]; 22.5 mg) was 0.2374 µg/mL, the “Cmax Median” value ([3]; 22.5 mg) was 0.2032 µg/mL and the “Cmax Min-Max” value ([3]; 22.5 mg) was 0.1427 to 0.4005 µg/mL. The “t1/2 Mean (SD)” value ([3]; 22.5 mg) was 0.84 (0.093) hr, the “t1/2 Median” value ([3]; 22.5 mg) was 52.2 min and the “t1/2 Min-Max” value ([3]; 22.5 mg) was 42 to 54 min. The “tmax Mean (SD)” value ([3]; 22.5 mg) was 0.45 (0.370) hr, the “tmax Median” value ([3]; 22.5 mg) was 16.2 min and the “tmax Min-Max” value ([3]; 22.5 mg) was 18 to 60 min. For the same compound, the “AUCinf Geometric Mean” value ([3]; 30 mg) was 824.87 ng·h/mL, the “AUCinf Mean” value ([3]; 30 mg) was 828.62 ng·h/mL and the “AUCinf Median” value ([3]; 30 mg) was 834.70 ng·h/mL. The “AUCinf Min-Max” value ([3]; 30 mg) was 729.7 to 921.4 ng·h/mL, the “AUClast Geometric Mean” value ([3]; 30 mg) was 657.33 ng·h/mL and the “AUClast Mean” value ([3]; 30 mg) was 669.37 ng·h/mL. For the same compound, the “AUClast Median” value ([3]; 30 mg) was 700.90 ng·h/mL, the “AUClast Min-Max” value ([3]; 30 mg) was 444.1 to 796.1 ng·h/mL and the “Cmax Geometric Mean” value ([3]; 30 mg) was 0.31424 µg/mL. For the same compound, the “Cmax Mean” value ([3]; 30 mg) was 0.32048 µg/mL, the “Cmax Median” value ([3]; 30 mg) was 0.32085 µg/mL and the “Cmax Min-Max” value ([3]; 30 mg) was 0.2209 to 0.4261 µg/mL. For the same compound, the “t1/2 Mean (SD)” value ([3]; 30 mg) was 1.07 (0.338) hr, the “t1/2 Median” value ([3]; 30 mg) was 55.8 min and the “t1/2 Min-Max” value ([3]; 30 mg) was 48 to 90 min. The “tmax Mean (SD)” value ([3]; 30 mg) was 0.63 (0.391) hr, the “tmax Median” value ([3]; 30 mg) was 38.4 min and the “tmax Min-Max” value ([3]; 30 mg) was 12 to 60 min. For the same compound, the Tmax ([3]; sc, 30 mg) was 12 to 60 min and the elimination half-life ([3]; sc, 30 mg) was 36 to 90 min.
